Experimental data published in PubChem BioAssay (NCI).
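Following 48 hours of exposure in 96-well plates, responses at five concentrations were used to interpolate endpoints linearly. Here, GI50 denotes the concentration required for 50% inhibition of growth. At the TGI there is no net growth.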

Key:
Experiment in all cases: NCI anticancer screen, dose series, 48 h
[1] = test system: HS 578T breast
[2] = test system: SK-MEL-2 melanoma
[3] = test system: SNB-19 CNS
[4] = test system: A549 NSCLC
[5] = test system: T-47D breast
[6] = test system: EKVX NSCLC
[7] = test system: MOLT-4 leukemia
[8] = test system: OVCAR-8 ovarian
[9] = test system: SF-295 CNS
[10] = test system: RPMI-8226 leukemia
[11] = test system: LOX IMVI melanoma
[12] = test system: BT-549 breast
[13] = test system: MCF7 breast
[14] = test system: CAKI-1 renal
[15] = test system: KM12 colon
[16] = test system: K-562 leukemia
[17] = test system: OVCAR-4 ovarian
[18] = test system: 786-0 renal
[19] = test system: NCI/ADR-RES ovarian
[20] = test system: PC-3 prostate
[21] = test system: RXF 393 renal
[22] = test system: A498 renal
[23] = test system: OVCAR-5 ovarian
[24] = test system: NCI-H522 lung
[25] = test system: UACC-257 melanoma
[26] = test system: MDA-MB-231 breast
[27] = test system: COLO 205 colon
[28] = test system: SF-539 CNS
[29] = test system: MALME-3M melanoma
[30] = test system: SK-MEL-5 melanoma
[31] = test system: SNB-75 CNS
[32] = test system: HCC-2998 colon
[33] = test system: HT29 colon
[34] = test system: SN12C renal
[35] = test system: SW-620 colon
[36] = test system: HCT-15 colon
[37] = test system: SR leukemia
[38] = test system: UO-31 renal
[39] = test system: U251 CNS
[40] = test system: SF-268 CNS
[41] = test system: DU-145 prostate
[42] = test system: HL-60(TB) leukemia
[43] = test system: M14 melanoma
[44] = test system: ACHN renal
[45] = test system: SK-OV-3 ovarian
[46] = test system: TK-10 renal
[47] = test system: HCT-116 colon
[48] = test system: SK-MEL-28 melanoma
[49] = test system: HOP-62 NSCLC
[50] = test system: MDA-MB-435
[51] = test system: OVCAR-3 ovarian
[52] = test system: IGROV1 ovarian
[53] = test system: NCI-H226 lung
[54] = test system: NCI-H460 lung
[55] = test system: NCI-H23 lung
[56] = test system: UACC-62 melanoma
[57] = test system: CCRF-CEM leukemia
[58] = test system: HOP-92 NSCLC

`Cn1cccc1-c1cc(-c2ccccc2)nc(N)c1C#N` gave a GI50 [1] of over 28.8 µM, a TGI [1] of over 100 µM and a GI50 [2] of over 100 µM. It also gave a TGI [2] of over 100 µM, a GI50 [3] of over 89.5 µM and a TGI [3] of over 100 µM. The GI50 [4] was over 100 µM, the TGI [4] was over 100 µM and the GI50 [5] was over 100 µM. The TGI [5] was over 100 µM, the GI50 [6] was 98.1 µM and the TGI [6] was over 100 µM. The GI50 [7] was over 70 µM, the TGI [7] was over 100 µM and the GI50 [8] was over 100 µM. The TGI [8] was over 100 µM, the GI50 [9] was over 86.3 µM and the TGI [9] was over 100 µM. It also gave a GI50 [10] of 55.9 µM, a TGI [10] of over 100 µM and a GI50 [11] of over 100 µM. For the same compound, the TGI [11] was over 100 µM, the GI50 [12] was 67.5 µM and the TGI [12] was over 100 µM. The GI50 [13] was over 100 µM, the TGI [13] was over 100 µM and the GI50 [14] was over 100 µM. For the same compound, the TGI [14] was over 100 µM, the GI50 [15] was over 100 µM and the TGI [15] was over 100 µM. The GI50 [16] was over 100 µM, the TGI [16] was over 100 µM and the GI50 [17] was over 68.6 µM. For the same compound, the TGI [17] was over 100 µM, the GI50 [18] was over 96.4 µM and the TGI [18] was over 100 µM. It also gave a GI50 [19] of over 100 µM, a TGI [19] of over 100 µM and a GI50 [20] of over 100 µM. For the same compound, the TGI [20] was over 100 µM, the GI50 [21] was over 100 µM and the TGI [21] was over 100 µM. For the same compound, the GI50 [22] was 36.8 µM, the TGI [22] was over 100 µM and the GI50 [23] was over 100 µM. For the same compound, the TGI [23] was over 100 µM, the GI50 [24] was over 78.2 µM and the TGI [24] was over 100 µM. It also gave a GI50 [25] of over 100 µM, a TGI [25] of over 100 µM and a GI50 [26] of over 82 µM. The TGI [26] was over 100 µM, the GI50 [27] was over 100 µM and the TGI [27] was over 100 µM. For the same compound, the GI50 [28] was over 58.3 µM, the TGI [28] was over 100 µM and the GI50 [29] was over 100 µM. For the same compound, the TGI [29] was over 100 µM, the GI50 [30] was 98.7 µM and the TGI [30] was over 100 µM. For the same compound, the GI50 [31] was over 43 µM, the TGI [31] was over 87.9 µM and the GI50 [32] was over 100 µM. It also gave a TGI [32] of over 100 µM, a GI50 [33] of over 100 µM and a TGI [33] of over 100 µM. It also gave a GI50 [34] of over 76.8 µM, a TGI [34] of over 100 µM and a GI50 [35] of over 100 µM. It also gave a TGI [35] of over 100 µM, a GI50 [36] of over 100 µM and a TGI [36] of over 100 µM. For the same compound, the GI50 [37] was 40.8 µM, the TGI [37] was over 100 µM and the GI50 [38] was over 100 µM. It also gave a TGI [38] of over 100 µM, a GI50 [39] of over 100 µM and a TGI [39] of over 100 µM. The GI50 [40] was over 100 µM, the TGI [40] was over 100 µM and the GI50 [41] was 97.5 µM. For the same compound, the TGI [41] was over 100 µM, the GI50 [42] was 0.761 µM and the TGI [42] was over 100 µM. It also gave a GI50 [43] of over 100 µM, a TGI [43] of over 100 µM and a GI50 [44] of over 100 µM. The TGI [44] was over 100 µM, the GI50 [45] was over 100 µM and the TGI [45] was over 100 µM. For the same compound, the GI50 [46] was over 100 µM, the TGI [46] was over 100 µM and the GI50 [47] was over 100 µM. For the same compound, the TGI [47] was over 100 µM, the GI50 [48] was over 100 µM and the TGI [48] was over 100 µM. The GI50 [49] was 84.6 µM, the TGI [49] was over 100 µM and the GI50 [50] was over 100 µM. The TGI [50] was over 100 µM, the GI50 [51] was over 67.7 µM and the TGI [51] was over 100 µM. For the same compound, the GI50 [52] was over 100 µM, the TGI [52] was over 100 µM and the GI50 [53] was over 46.4 µM. For the same compound, the TGI [53] was over 100 µM, the GI50 [54] was over 100 µM and the TGI [54] was over 100 µM. The GI50 [55] was over 100 µM, the TGI [55] was over 100 µM and the GI50 [56] was 34.5 µM. The TGI [56] was over 100 µM.

`COc1ccc(C2C3=C(COC3=O)N(CCO)c3cc4c(cc32)CCC4)cc1` (stereo unspecified) was tested, and the GI50 [1] was 4.11 µM, the TGI [1] was 42 µM and the GI50 [57] was 3.98 µM. For the same compound, the TGI [57] was over 50 µM, the GI50 [2] was 1.45 µM and the TGI [2] was 4.74 µM. It also gave a GI50 [3] of 7.48 µM, a TGI [3] of over 50 µM and a GI50 [4] of 3.84 µM. It also gave a TGI [4] of over 50 µM, a GI50 [5] of 3.87 µM and a TGI [5] of over 50 µM. It also gave a GI50 [6] of 13.5 µM, a TGI [6] of over 50 µM and a GI50 [7] of 2.2 µM. For the same compound, the TGI [7] was over 50 µM, the GI50 [8] was 14.2 µM and the TGI [8] was over 50 µM. It also gave a GI50 [9] of 1.49 µM, a TGI [9] of 6.7 µM and a GI50 [10] of 11.4 µM. The TGI [10] was over 50 µM, the GI50 [11] was 3.1 µM and the TGI [11] was over 50 µM. It also gave a GI50 [12] of 2.38 µM, a TGI [12] of 25.2 µM and a GI50 [13] of 1.86 µM. For the same compound, the TGI [13] was over 50 µM, the GI50 [14] was 3.1 µM and the TGI [14] was 27.7 µM. For the same compound, the GI50 [15] was 2.31 µM, the TGI [15] was over 50 µM and the GI50 [16] was 1.69 µM. For the same compound, the TGI [16] was over 50 µM, the GI50 [17] was 5.46 µM and the TGI [17] was over 50 µM. The GI50 [18] was 4.8 µM, the TGI [18] was over 50 µM and the GI50 [19] was 3.89 µM. It also gave a TGI [19] of 25.8 µM, a GI50 [20] of 6.22 µM and a TGI [20] of over 50 µM. The GI50 [21] was 4.24 µM, the TGI [21] was 27.1 µM and the GI50 [22] was 2.36 µM. The TGI [22] was over 50 µM, the GI50 [23] was over 50 µM and the TGI [23] was over 50 µM. The GI50 [24] was 0.808 µM, the TGI [24] was 3.73 µM and the GI50 [25] was 4.34 µM. The TGI [25] was over 50 µM, the GI50 [26] was 10.9 µM and the TGI [26] was over 50 µM. The GI50 [27] was 6.2 µM, the TGI [27] was over 50 µM and the GI50 [28] was 5.09 µM. It also gave a TGI [28] of 28.5 µM, a GI50 [29] of 3.06 µM and a TGI [29] of over 50 µM. It also gave a GI50 [30] of 2.38 µM, a TGI [30] of over 50 µM and a GI50 [31] of 1.46 µM. It also gave a TGI [31] of 13.7 µM, a GI50 [32] of 5.76 µM and a TGI [32] of 25.8 µM. It also gave a GI50 [33] of 1.7 µM, a TGI [33] of 24.9 µM and a GI50 [34] of 19 µM. It also gave a TGI [34] of over 50 µM, a GI50 [35] of 2.17 µM and a TGI [35] of over 50 µM. For the same compound, the GI50 [36] was 6.04 µM, the TGI [36] was over 50 µM and the GI50 [38] was 5.86 µM. For the same compound, the TGI [38] was over 50 µM, the GI50 [58] was over 50 µM and the TGI [58] was over 50 µM. The GI50 [39] was 3.16 µM, the TGI [39] was over 50 µM and the GI50 [40] was 7.05 µM. The TGI [40] was over 50 µM, the GI50 [41] was 5.04 µM and the TGI [41] was 20.2 µM. The GI50 [42] was 1.18 µM, the TGI [42] was 3.98 µM and the GI50 [43] was 2.32 µM. For the same compound, the TGI [43] was 21.1 µM, the GI50 [44] was 24 µM and the TGI [44] was over 50 µM. The GI50 [45] was 8.78 µM, the TGI [45] was over 50 µM and the GI50 [46] was 3.36 µM. The TGI [46] was 39.9 µM, the GI50 [47] was 2.12 µM and the TGI [47] was over 50 µM. It also gave a GI50 [48] of 5.31 µM, a TGI [48] of over 50 µM and a GI50 [49] of 9.02 µM. It also gave a TGI [49] of over 50 µM, a GI50 [50] of 1.13 µM and a TGI [50] of 5.09 µM. It also gave a GI50 [51] of 1.07 µM, a TGI [51] of 2.97 µM and a GI50 [52] of 2.15 µM. For the same compound, the TGI [52] was 18.4 µM, the GI50 [53] was 21.4 µM and the TGI [53] was over 50 µM. The GI50 [54] was 2.37 µM, the TGI [54] was 26.9 µM and the GI50 [55] was 7.05 µM. For the same compound, the TGI [55] was over 50 µM, the GI50 [56] was 2.65 µM and the TGI [56] was over 50 µM.
